# Experimental data: patent publication US10772893B2, “2-(morpholin-4-yl)-1,7-naphthyridines” (BAYER PHARMA AKTIENGESELLSCHAFT, priority 2014, dated 2020)
# System: NCI-H460 cells
# Experiment: Proliferation assay, crystal violet staining
# Details: Homo sapiens, NCI-H460, 96 h, read-out: Inhibition of NCI-H460 cell proliferation, NCI-H460 cells, 4 days incubation
# Procedure: (§1) After 24 hours, the cells of one plate (zero plate) were dyed with crystal violet (see below), whereas the medium of the other plates was replaced with fresh culture medium (200 μl) to which the test substances were added in various concentrations (0 μM, and also in the range of 0.001-10 μM; the final concentration of the solvent dimethyl sulphoxide was 0.1 or 0.5%). The cells were incubated for 4 days in the presence of the test substances. […] After washing the fixed cells three times with water, the plates were dried at room temperature. The cells were stained by adding 100 μl/measurement point of a 0.1% strength crystal violet solution (pH adjusted to pH 3 by adding acetic acid). After washing the cells three times with water, the plates were dried at room temperature. The dye was dissolved by adding 100 μl/measurement point of a 10% strength acetic acid solution. […] The percentage change in cell growth was calculated by normalizing the measured values to the absorbance values of the zero plate (=0%) and the absorbance of the untreated (0 W) cells (=100%). The IC50 values were determined by means of a four parameter fit.
row,SMILES,IC50 [µM]
1,"CS(=O)(=O)C1(c2cc(N3CCOCC3)nc3c(-c4ccn[nH]4)nccc23)CC1 [Example 39, 4-(1-methanesulphonycyclopropyl)-2-(morpholin-4-yl)-8-(2H-pyrazol-3-yl)-[1,7]naphthyridine]",0.4
2,"C[C@@H]1COCCN1c1cc(OCCCCN)c2ccnc(-c3ccn[nH]3)c2n1 [Example 57, 4-({2-[(3R)-3-methylmorpholin-4-yl]-8-(1H-pyrazol-5-yl)-1,7-naphthyridin-4-yl}oxy)butan-1-amine]",0.374
3,"Clc1cc(N2CCOCC2)nc2c(-c3cc[nH]n3)nccc12 [Example 62, 4-chloro-2-morpholin-4-yl-8-(1H-pyrazol-3-yl)-[1,7]naphthyridine]",> 3
4,"C[C@@H]1COCCN1c1cc(N2CCNCC2)c2ccnc(-c3ccn[nH]3)c2n1 [Example 66, 2-[(3R)-3-methylmorpholin-4-yl]-4-(piperazin-1-yl)-8-(1H-pyrazol-5-yl)-1,7-naphthyridine]",0.127

# System: Caco-2 cells
# Experiment: Proliferation assay, crystal violet staining
# Type: cell-based
# Details: Homo sapiens, Caco-2, 96 h, 4 days incubation, read-out: Inhibition of Caco-2 cell proliferation
# Procedure: as §1
row,SMILES,IC50 [µM]
1,"C[C@@H]1COCCN1c1cc(N2CCNCC2)c2ccnc(-c3ccn[nH]3)c2n1 [Example 66, 2-[(3R)-3-methylmorpholin-4-yl]-4-(piperazin-1-yl)-8-(1H-pyrazol-5-yl)-1,7-naphthyridine]",3.35

# System: DU145 cells
# Experiment: Proliferation assay, crystal violet staining
# Details: Homo sapiens, DU-145, 96 h, read-out: Inhibition of DU145 cell proliferation, DU145 cells, 4 days incubation
# Procedure: as §1
row,SMILES,IC50 [µM]
1,"CS(=O)(=O)C1(c2cc(N3CCOCC3)nc3c(-c4ccn[nH]4)nccc23)CC1 [Example 39, 4-(1-methanesulphonycyclopropyl)-2-(morpholin-4-yl)-8-(2H-pyrazol-3-yl)-[1,7]naphthyridine]",0.837
2,"C[C@@H]1COCCN1c1cc(OCCCCN)c2ccnc(-c3ccn[nH]3)c2n1 [Example 57, 4-({2-[(3R)-3-methylmorpholin-4-yl]-8-(1H-pyrazol-5-yl)-1,7-naphthyridin-4-yl}oxy)butan-1-amine]",1.56

# System: HeLa cells
# Experiment: Proliferation assay, crystal violet staining
# Details: Homo sapiens, 96 h, read-out: Inhibition of HeLa cell proliferation, HeLa cells, 4 days incubation
row,SMILES,IC50 [µM]
1,"CS(=O)(=O)C1(c2cc(N3CCOCC3)nc3c(-c4ccn[nH]4)nccc23)CC1 [Example 39, 4-(1-methanesulphonycyclopropyl)-2-(morpholin-4-yl)-8-(2H-pyrazol-3-yl)-[1,7]naphthyridine]",1.05
2,"Clc1cc(N2CCOCC2)nc2c(-c3cc[nH]n3)nccc12 [Example 62, 4-chloro-2-morpholin-4-yl-8-(1H-pyrazol-3-yl)-[1,7]naphthyridine]",0.164
3,"Clc1ccc(-c2cc(N3CCOCC3)nc3c(-c4ccn[nH]4)nccc23)cc1 [Example 316, 4-(4-chlorophenyl)-2-(morpholin-4-yl)-8-(1H-pyrazol-5-yl)-1,7-naphthyridine]",> 3
4,"COc1cccc(-c2cc(N3CCOCC3)nc3c(-c4ccn[nH]4)nccc23)c1F [Example 317, 4-(2-fluoro-3-methoxyphenyl)-2-(morpholin-4-yl)-8-(1H-pyrazol-5-yl)-1,7-naphthyridine]",2.98
5,"Cc1ccccc1-c1cc(N2CCOCC2)nc2c(-c3ccn[nH]3)nccc12 [Example 318, 4-(2-methylphenyl)-2-(morpholin-4-yl)-8-(1H-pyrazol-5-yl)-1,7-naphthyridine]",2
6,"CN(C)c1cccc(-c2cc(N3CCOCC3)nc3c(-c4ccn[nH]4)nccc23)c1 [Example 320, N,N-dimethyl-3-[2-(morpholin-4-yl)-8-(1H-pyrazol-5-yl)-1,7-naphthyridin-4-yl]aniline]",> 3
7,"CN(C)c1ccccc1-c1cc(N2CCOCC2)nc2c(-c3ccn[nH]3)nccc12 [Example 321, N,N-dimethyl-2-[2-(morpholin-4-yl)-8-(1H-pyrazol-5-yl)-1,7-naphthyridin-4-yl]aniline]",> 3
8,"CS(=O)(=O)Nc1ccccc1-c1cc(N2CCOCC2)nc2c(-c3ccn[nH]3)nccc12 [Example 322, N-{2-[2-(morpholin-4-yl)-8-(1H-pyrazol-5-yl)-1,7-naphthyridin-4-yl]phenyl}methanesulfonamide]",> 3
9,"CS(=O)(=O)Nc1ccc(-c2cc(N3CCOCC3)nc3c(-c4ccn[nH]4)nccc23)cc1 [Example 323, N-{4-[2-(morpholin-4-yl)-8-(1H-pyrazol-5-yl)-1,7-naphthyridin-4-yl]phenyl}methanesulfonamide]",2.22
10,"CN(C)C(=O)c1ccc(-c2cc(N3CCOCC3)nc3c(-c4ccn[nH]4)nccc23)cc1 [Example 324, N,N-dimethyl-4-[2-(morpholin-4-yl)-8-(1H-pyrazol-5-yl)-1,7-naphthyridin-4-yl]benzamide]",2.42
11,"C/C=C/c1cc(N2CCOCC2)nc2c(-c3ccn[nH]3)nccc12 [Example 325, 2-(morpholin-4-yl)-4-[(1E)-prop-1-en-1-yl]-8-(1H-pyrazol-5-yl)-1,7-naphthyridine]",0.999
12,"Oc1ccc(-c2cc(N3CCOCC3)nc3c(-c4ccn[nH]4)nccc23)cc1 [Example 326, 4-[2-(morpholin-4-yl)-8-(1H-pyrazol-5-yl)-1,7-naphthyridin-4-yl]phenol]",2.92
13,"Fc1ccccc1-c1cc(N2CCOCC2)nc2c(-c3ccn[nH]3)nccc12 [Example 327, 4-(2-fluorophenyl)-2-(morpholin-4-yl)-8-(1H-pyrazol-5-yl)-1,7-naphthyridine]",1.89
14,"O=C(NC1CC1)c1cccc(-c2cc(N3CCOCC3)nc3c(-c4ccn[nH]4)nccc23)c1 [Example 330, N-cyclopropyl-3-[2-(morpholin-4-yl)-8-(1H-pyrazol-5-yl)-1,7-naphthyridin-4-yl]benzamide]",> 3
15,"COc1ccc(-c2cc(N3CCOCC3)nc3c(-c4ccn[nH]4)nccc23)c(OC)c1 [Example 332, 4-(2,4-dimethoxyphenyl)-2-(morpholin-4-yl)-8-(1H-pyrazol-5-yl)-1,7-naphthyridine]",> 3
16,"Clc1ccccc1-c1cc(N2CCOCC2)nc2c(-c3ccn[nH]3)nccc12 [Example 333, 4-(2-chlorophenyl)-2-(morpholin-4-yl)-8-(1H-pyrazol-5-yl)-1,7-naphthyridine]",> 3
17,"Cc1ccc(C)c(-c2cc(N3CCOCC3)nc3c(-c4ccn[nH]4)nccc23)c1 [Example 334, 4-(2,5-dimethylphenyl)-2-(morpholin-4-yl)-8-(1H-pyrazol-5-yl)-1,7-naphthyridine]",> 3

# Continued, values first:
row,IC50 [µM],SMILES
1,2.96,"Nc1cccc(-c2cc(N3CCOCC3)nc3c(-c4ccn[nH]4)nccc23)c1 [Example 335, 3-[2-(morpholin-4-yl)-8-(1H-pyrazol-5-yl)-1,7-naphthyridin-4-yl]aniline]"
2,1.71,"Oc1cccc(-c2cc(N3CCOCC3)nc3c(-c4ccn[nH]4)nccc23)c1 [Example 337, 3-[2-(morpholin-4-yl)-8-(1H-pyrazol-5-yl)-1,7-naphthyridin-4-yl]phenol]"
3,> 3,"COc1ccc(F)cc1-c1cc(N2CCOCC2)nc2c(-c3ccn[nH]3)nccc12 [Example 339, 4-(5-fluoro-2-methoxyphenyl)-2-(morpholin-4-yl)-8-(1H-pyrazol-5-yl)-1,7-naphthyridine]"
4,2.95,"Fc1ccc(-c2cc(N3CCOCC3)nc3c(-c4ccn[nH]4)nccc23)c(F)c1 [Example 340, 4-(2,4-difluorophenyl)-2-(morpholin-4-yl)-8-(1H-pyrazol-5-yl)-1,7-naphthyridine]"
5,1.59,"Fc1cccc(-c2cc(N3CCOCC3)nc3c(-c4ccn[nH]4)nccc23)c1F [Example 341, 4-(2,3-difluorophenyl)-2-(morpholin-4-yl)-8-(1H-pyrazol-5-yl)-1,7-naphthyridine]"
6,1.71,"Nc1ccccc1-c1cc(N2CCOCC2)nc2c(-c3ccn[nH]3)nccc12 [Example 343, 2-[2-(morpholin-4-yl)-8-(1H-pyrazol-5-yl)-1,7-naphthyridin-4-yl]aniline]"
7,> 3,"c1ccc(-c2ccccc2-c2cc(N3CCOCC3)nc3c(-c4ccn[nH]4)nccc23)cc1 [Example 345, 4-(biphenyl-2-yl)-2-(morpholin-4-yl)-8-(1H-pyrazol-5-yl)-1,7-naphthyridine]"
8,> 3,"c1cc(-c2cc(N3CCOCC3)nc3c(-c4ccn[nH]4)nccc23)c2cccnc2c1 [Example 349, 2-(morpholin-4-yl)-8-(1H-pyrazol-5-yl)-4-(quinolin-5-yl)-1,7-naphthyridine]"
9,> 3,"c1cncc(-c2cc(N3CCOCC3)nc3c(-c4ccn[nH]4)nccc23)c1 [Example 350, 2-(morpholin-4-yl)-8-(1H-pyrazol-5-yl)-4-(pyridin-3-yl)-1,7-naphthyridine]"
10,3,"COc1cc(-c2cc(N3CCOCC3)nc3c(-c4ccn[nH]4)nccc23)ccn1 [Example 351, 4-(2-methoxypyridin-4-yl)-2-(morpholin-4-yl)-8-(1H-pyrazol-5-yl)-1,7-naphthyridine]"
